Target: T1, HGFR (His6-HGFR cytoplasmic domain) (Homo sapiens, UniProt P08581)
T1 construct: made in house; host or cells: Spodoptera frugiperda Sf9 insect cells (baculovirus, pFastBac-HT)
Assay: Inhibitory activity against HGFR tyrosine kinase activity (HTRF)
Format: biochemical
Conditions: biotin-poly(GT), ATP, 30° C. 10 min, read-out: IC50 (concentration necessary to inhibit HGFR kinase activity by 50%)
Method in brief: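 Baculovirus/Sf9-expressed N-terminal His6-tagged HGFR cytoplasmic domain (from Lys974), Ni-NTA purified, phosphorylated biotin-poly(GT) in Hepes pH 7.4 with MgCl2/MnCl2. ATP added as 4 μM solution; 10 min at 30° C., stopped with EDTA. Phosphotyrosine product detected by HTRF.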

T1 sequence (P08581 956-1390 limits assumed): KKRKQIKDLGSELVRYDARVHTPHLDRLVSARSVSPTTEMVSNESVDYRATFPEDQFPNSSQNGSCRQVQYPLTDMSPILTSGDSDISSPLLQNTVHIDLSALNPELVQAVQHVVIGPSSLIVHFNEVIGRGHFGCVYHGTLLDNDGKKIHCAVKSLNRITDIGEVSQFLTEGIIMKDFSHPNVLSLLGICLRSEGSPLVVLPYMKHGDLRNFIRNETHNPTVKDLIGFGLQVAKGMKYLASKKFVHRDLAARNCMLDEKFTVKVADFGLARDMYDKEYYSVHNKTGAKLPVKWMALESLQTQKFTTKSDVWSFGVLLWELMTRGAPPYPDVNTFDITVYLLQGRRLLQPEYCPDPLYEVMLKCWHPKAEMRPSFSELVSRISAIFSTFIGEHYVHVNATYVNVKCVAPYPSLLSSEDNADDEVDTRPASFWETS

Row | IC50 | SMILES
1 | 130 nM | CN(C)CCN1CCN(C(=O)Nc2cc(Oc3ccc(NC(=O)NC(=O)Cc4ccc(F)cc4)cc3F)ccn2)CC1 [Example 362, 2-{[4-(2-Dimethylaminoethyl)piperazin-1-yl]carbonylamino}-4-(2-fluoro-4-{3-[2-(4-fluorophenyl)acetyl]ureido}phenoxy)pyridine]
2 | < 30 nM | O=C(CC(=O)NC1CCCCCC1)Nc1ccc(Oc2ccnc(NC(=O)N3CCCC3)c2)c(F)c1 [Example 61, N-Cycloheptyl-N′-(3-fluoro-4-{2-[(pyrrolidine-1-carbonyl)amino]pyridin-4-yloxy}phenyl)malonamide]
3 | 75 nM | CN(C)CCN1CCN(C(=O)Nc2cc(Oc3ccc(NC(=S)NC(=O)Cc4ccc(F)cc4)cc3)ccn2)CC1 [Example 327, 2-{[4-(2-Dimethylaminoethyl)piperazin-1-yl]carbonylamino}-4-(4-{3-[2-(4-fluorophenyl)acetyl]thioureido}phenoxy)pyridine]
4 | 93 nM | CN1CCN(CCCN(C)C(=O)Nc2cc(Oc3ccc(NC(=O)CC(=O)Nc4ccc(F)cc4)c(F)c3)ccn2)CC1 [Example 93, N-[2-Fluoro-4-(2-{3-methyl-3-[3-(4-methylpiperazin-1-yl)propyl]ureido}pyridin-4-yloxy)phenyl]-N′-(4-fluorophenyl)malonamide]
5 | 31 nM | CC(=O)N1CCC(N(C)C(=O)Nc2cc(Oc3ccc(NC(=S)NC(=O)Cc4ccc(F)cc4)cc3F)ncn2)CC1 [Example 314, 1-(1-Acetylpiperidin-4-yl)-3-[6-(2-fluoro-4-{3-[2-(4-fluorophenyl)acetyl]thioureido}phenoxy)pyrimidin-4-yl]-1-methylurea]
6 | 67 nM | O=C(CC(=O)Nc1ccc(Oc2ccnc(NC(=O)N3CCCC3)c2)c(Cl)c1)Nc1ccc(F)cc1 [Example 67, N-(3-Chloro-4-{2-[(pyrrolidine-1-carbonyl)amino]pyridin-4-yloxy}phenyl)-N′-(4-fluorophenyl)malonamide]
7 | 83 nM | CN1CC(N2CCC(N(C)C(=O)Nc3cc(Oc4ccc(NC(=S)NC(=O)Cc5ccc(F)cc5)cc4F)ncn3)CC2)C1 [Example 391, 3-(6-{2-Fluoro-4-[3-(4-fluorophenyl)acetylthioureido]phenoxy}pyrimidin-4-yl)-1-methyl-1-[1-(1-methylazetidin-3-yl)piperidin-4-yl]urea]
8 | 50 nM | CN(C)C1CN(C(=O)Nc2cc(Oc3ccc(NC(=S)NC(=O)Cc4ccc(F)cc4)cc3F)ncn2)C1 [Example 208, 3-Dimethylaminoazetidine-1-carboxylic acid [6-(2-fluoro-4-{3-[2-(4-fluorophenyl)acetyl]thioureido}phenoxy)pyrimidin-4-yl]amide]
9 | 47 nM | O=C(Cc1ccccc1)NC(=S)Nc1ccc(Oc2ccnc(NC(=O)N3CCC(CN4CCC4)CC3)c2)c(F)c1 [Example 395, 4-(Azetidin-1-ylmethyl)piperidine-1-carboxylic acid {4-[2-fluoro-4-(3-phenylacetylthioureido)phenoxy]pyridin-2-yl}amide]

More lines, now with the values behind:

Row | SMILES | IC50
10 | O=C(CC(=O)Nc1ccc(Oc2ccnc(NC(=O)N3CCOCC3)c2)cc1)Nc1ccc(F)cc1 [Example 71, N-(4-Fluorophenyl)-N′-(4-{2-[(morpholine-4-carbonyl)amino]pyridin-4-yloxy}phenyl)malonamide] | 25 nM
11 | CN(C)CCN1CCC(N(C)C(=O)Nc2cc(Oc3ccc(NC(=S)NC(=O)Cc4ccccc4)cc3F)ccn2)CC1 [Example 223, 1-[1-(2-Dimethylaminoethyl)piperidin-4-yl]-3-{4-[2-fluoro-4-(3-phenylacetylthioureido)phenoxy]pyridin-2-yl}-1-methylurea] | 58 nM
12 | CN(C)C(=O)Nc1cc(Oc2ccc(NC(=S)NC(=O)CC3CCCCC3)cc2F)ccn1 [Example 16, 2-[(Dimethylamino)carbonylamino]-4-{2-fluoro-4-[3-(2-cyclohexylacetylthio)ureido]phenoxy}pyridine] | 56 nM
13 | CN(C)CC1CCN(C(=O)Nc2cc(Oc3ccc(NC(=O)NC(=O)Cc4ccc(F)cc4)cc3F)ccn2)CC1 [Example 347, 2-{[4-(Dimethylaminomethyl)piperidin-1-yl]carbonylamino}-4-(2-fluoro-4-{3-[2-(4-fluorophenyl)acetyl]ureido}phenoxy)pyridine] | 62 nM
14 | CN(C)CCN1CCN(C(=O)Nc2cc(Oc3ccc(NC(=S)NC(=O)Cc4ccc(F)cc4)cc3F)ncn2)CC1 [Example 181, 4-{[4-(2-Dimethylaminoethyl)piperazin-1-yl]carbonylamino}-6-(2-fluoro-4-{3-[2-(4-fluorophenyl)acetyl]thioureido}phenoxy)pyrimidine] | 41 nM
15 | O=C(Cc1ccc(F)cc1)NC(=S)Nc1ccc(Oc2ccnc(NC(=O)N3CCC(N4CCC(O)CC4)CC3)c2)cc1 [Example 190, 2-{[4-(4-Hydroxypiperidin-1-yl)piperidin-1-yl]carbonylamino}-4-(4-{3-[2-(4-fluorophenyl)acetyl]thioureido}phenoxy)pyridine] | 60 nM
16 | COc1ccccc1NC(=O)CC(=O)Nc1ccc(Oc2ccnc(NC(=O)N3CCCC3)c2)c(F)c1 [Example 60, N-(2-methoxyphenyl)-N′-(3-fluoro-4-{2-[(pyrrolidine-1-carbonyl)amino]pyridin-4-yloxy}phenyl)malonamide] | 49 nM
17 | O=C(Cc1ccc(F)cc1)NC(=S)Nc1ccc(Oc2cc(NC(=O)N3CCN(CCN4CCCC4)CC3)ncn2)c(F)c1 [Example 339, 4-(2-Pyrrolidin-1-ylethyl)piperazine-1-carboxylic acid [6-(2-fluoro-4-{3-[2-(4-fluorophenyl)acetyl]thioureido}phenoxy)pyrimidin-4-yl]amide] | 130 nM
18 | CN(C)[C@@H]1CCN(C(=O)Nc2cc(Oc3ccc(NC(=S)NC(=O)Cc4ccccc4)cc3F)ccn2)C1 [Example 245, 2-{[(3R)-3-Dimethylaminopyrrolidin-1-yl]carbonylamino}-4-{2-fluoro-4-[3-(2-phenylacetyl)thioureido]phenoxy}pyridine] | 81 nM
19 | O=C(Cc1ccc(F)cc1)NC(=S)Nc1ccc(Oc2cc(NC(=O)N3CCOCC3)ncn2)c(F)c1 [Example 4, Morpholine-4-carboxylic acid [6-[2-fluoro-4-{3-[2-(4-fluorophenyl)acetyl]thioureido}phenoxy)pyrimidin-4-yl]amide] | 30 nM
20 | CN1CC[C@H](N(C)C(=O)Nc2cc(Oc3ccc(NC(=S)NC(=O)Cc4ccc(F)cc4)cc3F)ncn2)C1 [Example 201, 3-[6-(2-Fluoro-4-{3-[2-(4-fluorophenyl)acetyl]thioureido}phenoxy)pyrimidin-4-yl]-1-methyl-1-[(3S)-1-methylpyrrolidin-3-yl]urea] | 50 nM
21 | O=C(Cc1ccc(F)cc1)NC(=O)Nc1ccc(Oc2ccnc(NC(=O)N3CCC(N4CCC4)CC3)c2)cc1F [Example 178, 4-(Azetidin-1-yl)piperidine-1-carboxylic acid [4-(3-fluoro-4-{3-[2-(4-fluorophenyl)acetyl]ureido}phenoxy)pyridin-2-yl]amide] | 63 nM
22 | O=C(Cc1ccc(F)cc1)NC(=S)Nc1ccc(Oc2cc(NC(=O)N3CCCCC3)ncn2)c(F)c1 [Example 6, Piperidine-1-carboxylic acid [6-(2-fluoro-4-{3-[2-(4-fluorophenyl)acetyl]thioureido}phenoxy)pyrimidin-4-yl]amide] | 60 nM
23 | O=C(CC(=O)Nc1ccc(Oc2ccnc(NC(=O)N3CCCCC3)c2)cc1Cl)Nc1ccc(F)cc1 [Example 65, N-(2-Chloro-4-{2-[(piperidine-1-carbonyl)amino]pyridin-4-yloxy}phenyl)-N′-(4-fluorophenyl)malonamide] | 87 nM
24 | CN1CC(N2CCN(C(=O)Nc3cc(Oc4ccc(NC(=O)NC(=O)Cc5ccccc5)cc4F)ccn3)CC2)C1 [Example 377, 4-(1-Methylazetidin-3-yl)piperazine-1-carboxylic acid {4-[2-fluoro-4-(3-phenylacetylureido)phenoxy]pyridin-2-yl}amide] | 68 nM
25 | CC(C)C(=O)Nc1cc(Oc2ccc(NC(=O)CC(=O)Nc3ccc(F)cc3)c(F)c2)ccn1 [Example 76, N-(4-Fluorophenyl)-N′-[4-(2-isobutylylaminopyridin-4-yloxy)-2-fluorophenyl]malonamide] | 100 nM
26 | CN1CCC(N2CCN(C(=O)Nc3cc(Oc4ccc(NC(=O)NC(=O)Cc5ccc(F)cc5)cc4F)ccn3)CC2)CC1 [Example 345, 4-(2-Fluoro-4-{3-[2-(4-fluorophenyl)acetyl]ureido}phenoxy)-2-{[4-(1-methylpiperidin-4-yl)piperazin-1-yl]carbonylamino}pyridine] | 120 nM
27 | CCN1CCC(N(C)C(=O)Nc2cc(Oc3ccc(NC(=S)NC(=O)Cc4ccc(F)cc4)cc3F)ncn2)CC1 [Example 285, 1-(1-Ethylpiperidin-4-yl)-3-[6-(2-fluoro-4-{3-[2-(4-fluorophenyl)acetyl]thioureido}phenoxy)pyrimidin-4-yl]-1-methylurea] | 51 nM
28 | O=C(CC(=O)Nc1c(F)cccc1F)Nc1ccc(Oc2ccnc(NC(=O)N3CCCC3)c2)c(F)c1 [Example 59, N-(2,6-Difluorophenyl)-N′-(3-fluoro-4-{2-[(pyrrolidine-1-carbonyl)amino]pyridin-4-yloxy}phenyl)malonamide] | 100 nM
29 | CN(C)CC1CCN(C(=O)Nc2cc(Oc3ccc(NC(=S)NC(=O)Cc4ccc(F)cc4)cc3)ccn2)CC1 [Example 188, 2-{[4-(Dimethylaminomethyl)piperidin-1-yl]carbonylamino}-4-(4-{3-[2-(4-fluorophenyl)acetyl]thioureido}phenoxy)pyridine] | 130 nM
30 | O=C(Cc1ccc(F)cc1)NC(=O)Nc1ccc(Oc2ccnc(NC(=O)N3CCC(CN4CCCC4)CC3)c2)cc1 [Example 390, 4-(Pyrrolidin-1-ylmethyl)piperidine-1-carboxylic acid [4-(4-{3-[2-(4-fluorophenyl)acetyl]ureido}phenoxy)pyridin-2-yl]amide] | 120 nM

— US20070270421A1, “Novel pyridine Derivative and Pyrimidine Derivative (1)” (priority 2004, published 2007)
